Like-named read-outs stand apart in the source and are kept apart here.
Key:
[1] = tested on: HCT116; assay: MTT cytotoxicity assay, HCT116; type: cell-based; conditions: Homo sapiens; for cytotoxicity at 50 µM: read-out: % Cytotoxicity (50 µM) HCT116; for IC50: 0.05–50 µM
Method: (§1) Cytotoxicity assays were performed by using the MTT reduction method as described previously. Briefly, cancer cell lines were plated in flat-bottom 96-well plates at a cell concentration of 5 × 10^3 cells/well for the fastest growing lines, such as HEK293 and HT29 cells and 1 × 10^4 cells/well for more slowly growing lines, such as HCT116, H1975, BxPC-3, AsPC-1, B16-F10 and DAOY. Then, cells were incubated with the synthesised compounds at different concentrations (from 0.05 to 50 µM) in 200 µL with 10% FBS in RPMI 1640 or DMEM F12 culture medium at 37 °C for 72 h. Later, 10 µL of MTT were added at a final concentration of 0.5 mg/mL, incubated at 37 °C for 4 h, and then solubilised with 10% sodium dodecyl sulphate (SDS) in 0.1 mM HCl and incubated overnight at 37 °C. Formazan formation was measured at 570 nm in a multiwell plate reader (Cytation 5, Biotek Instruments, Winooski, VT, USA). Three independent biological replicates were performed.

[2] = MTT cytotoxicity assay, HEK293 control cells; type: cell-based, human; conditions: human, HEK293 cells; 50 µM, 72 h, MTT;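 further: Read-out is formazan absorbance at 570 nm from MTT reduction in 96-well plates, with three independent biological replicates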
[3] = tested on: HT29; assay: MTT cytotoxicity assay, HT29; type: cell-based; conditions: Homo sapiens; for cytotoxicity at 50 µM: read-out: % Cytotoxicity (50 µM) HT29; for IC50: 0.05–50 µM
Method: as §1

[4] = tested on: H1975; assay: MTT cytotoxicity assay, H1975; type: cell-based; conditions: Homo sapiens; for cytotoxicity at 50 µM: read-out: % Cytotoxicity (50 µM) H1975; for IC50: 0.05–50 µM
Method: as §1

[5] = tested on: Daoy; assay: MTT cytotoxicity assay, Daoy; type: cell-based, human; conditions: 72 h; for cytotoxicity at 50 µM: read-out: % Cytotoxicity (50 µM) DAOY; for IC50: 0.05–50 µM;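 on all read-outs here: viability read as formazan absorbance at 570 nm after MTT reduction, three independent biological replicates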
[6] = tested on: BxPC-3; assay: MTT cytotoxicity assay, BxPC-3; type: cell-based; conditions: Homo sapiens, 72 h, 0.05–50 µM
Method: as §1

[7] = tested on: HEK293; assay: MTT cytotoxicity assay, HEK293 control cells; type: cell-based, human; conditions: MTT, 72 h, non-cancer cell line;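 further: Read-out is formazan absorbance at 570 nm from MTT reduction in 96-well plates, with three independent biological replicates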
[8] = tested on: AsPC-1; assay: MTT cytotoxicity assay, AsPC-1; type: cell-based; conditions: Homo sapiens, ASPC1, 72 h, 0.05–50 µM
Method: as §1

Structure (SMILES) | melting point | cytotoxicity at 50 µM ([1]; HCT-116, 50 µM, 72 h, MTT) | cytotoxicity at 72 h, 50 µM [2] | cytotoxicity at 50 µM ([3]; HT-29, 50 µM, 72 h, MTT) | cytotoxicity at 50 µM ([4]; NCI-H1975, 50 µM, 72 h, MTT) | cytotoxicity at 50 µM ([5]; Homo sapiens, Daoy, 50 µM, MTT) | other results
CCCCCCn1cnc2c(-c3ccc(OC(F)(F)F)cc3)nc(NC3CCCCC3)nc21 [Compound 4f, N-cyclohexyl-9-hexyl-6-(4-(trifluoromethoxy)phenyl)-9H-purin-2-amine] | 84 to 86 °C | < 50% | < 50% | < 50% | < 50% | < 50% | 
CCCCCn1cnc2c(-c3ccc(OC(F)(F)F)cc3)nc(N3CCN(c4ccccc4)CC3)nc21 [Compound 4j, 9-Pentyl-2-(4-phenylpiperazin-1-yl)-6-(4-(trifluoromethoxy)phenyl)-9H-purine] |  | < 50% | < 50% | < 50% | < 50% | < 50% | 
CCCCCn1cnc2c(-c3ccc(OC(F)(F)F)cc3)nc(NC3CCCC3)nc21 [Compound 4b, N-cyclopentyl-9-pentyl-6-(4-(trifluoromethoxy)phenyl)-9H-purin-2-amine] |  |  | < 50% |  |  |  | IC50 [6]: > 50 µM; cytotoxicity at 50 µM ([1]; HCT-116, 72 h): 53 ± 0.9%; IC50 ([1]; HCT-116, MTT, 72 h): 47 ± 0.9 µM; IC50 ([7]; Homo sapiens, HEK293): > 50 µM; cytotoxicity at 50 µM ([3]; HT-29, 72 h): < 50%; IC50 ([3]; HT-29, MTT, 72 h): > 50 µM; IC50 [8]: 23.2 ± 0.2 µM; cytotoxicity at 50 µM ([4]; NCI-H1975, 72 h): 30 ± 1%; IC50 ([4]; NCI-H1975, MTT, 72 h): 30 ± 1 µM; IC50 ([5]; Homo sapiens, Daoy, MTT): > 50 µM; cytotoxicity at 50 µM ([5]; Homo sapiens, Daoy): 94 ± 0.4%
CCCCCCn1cnc2c(-c3ccc(OC(F)(F)F)cc3)nc(N3CCN(c4ccc(Cl)cc4)CC3)nc21 [Compound 4m, 2-(4-(4-Chlorophenyl)piperazin-1-yl)-9-hexyl-6-(4-(trifluoromethoxy)phenyl)-9H-purine] | 126 to 128 °C | < 50% | < 50% | < 50% | < 50% | < 50% | 
CCCCCCn1cnc2c(-c3ccc(OC(F)(F)F)cc3)nc(NCC3CCCCC3)nc21 [Compound 4i, N-(cyclohexylmethyl)-9-hexyl-6-(4-(trifluoromethoxy)phenyl)-9H-purin-2-amine] |  | < 50% | < 50% | < 50% | < 50% | < 50% | 
CCCCn1cnc2c(-c3ccc(OC(F)(F)F)cc3)nc(NC3CCCCC3)nc21 [Compound 4d, 9-Butyl-N-cyclohexyl-6-(4-(trifluoromethoxy)phenyl)-9H-purin-2-amine] |  | < 50% | < 50% | < 50% | < 50% | < 50% | 
CCCCCn1cnc2c(-c3ccc(OC(F)(F)F)cc3)nc(N3CCN(c4ccc(OC)cc4)CC3)nc21 [Compound 4p, 9-Pentyl-2-(4-(4-methoxyphenyl)piperazin-1-yl)-6-(4-(trifluoromethoxy)phenyl)-9H-purine] | 118 to 120 °C | < 50% | < 50% | < 50% | < 50% | < 50% | 
CCCCn1cnc2c(-c3ccc(OC(F)(F)F)cc3)nc(NCC3CCCCC3)nc21 [Compound 4g, 9-Butyl-N-(cyclohexylmethyl)-6-(4-(trifluoromethoxy)phenyl)-9H-purin-2-amine] | 88 to 89 °C | < 50% | < 50% | < 50% | < 50% | < 50% | 
O=c1[nH]cc(F)c(=O)[nH]1 [Compound 5-FU, 5-fluorouracil, reference compound] |  | 62 ± 1.3% | < 50% | 66 ± 4.9% |  |  | IC50 ([1]; HCT-116, MTT, 72 h): 31 ± 0.3 µM; IC50 ([7]; Homo sapiens, HEK293): 0.83 ± 0.07 µM; IC50 ([3]; HT-29, MTT, 72 h): 0.51 ± 0.06 µM
CCCCCCn1cnc2c(-c3ccc(OC(F)(F)F)cc3)nc(N3CCN(c4ccccc4)CC3)nc21 [Compound 4k, 9-Hexyl-2-(4-phenylpiperazin-1-yl)-6-(4-(trifluoromethoxy)phenyl)-9H-purine] | 99 to 101 °C | < 50% | < 50% | < 50% | < 50% | < 50% | 
CCCCCCn1cnc2c(-c3ccc(OC(F)(F)F)cc3)nc(N3CCN(c4ccc(OC)cc4)CC3)nc21 [Compound 4q, 9-Hexyl-2-(4-(4-methoxyphenyl)piperazin-1-yl)-6-(4-(trifluoromethoxy)phenyl)-9H-purine] | 144 to 145 °C | < 50% | < 50% | < 50% | < 50% | < 50% | 
Nc1ccn([C@@H]2O[C@H](CO)[C@@H](O)C2(F)F)c(=O)n1 [Gemcitabine, reference compound] |  |  |  |  |  |  | IC50 [6]: 0.2 ± 0.07 µM; IC50 ([7]; Homo sapiens, HEK293): 7.5 ± 0.6 µM; IC50 [8]: 0.3 ± 0.09 µM
CCCCCn1cnc2c(-c3ccc(OC(F)(F)F)cc3)nc(N3CCN(c4ccc(Cl)cc4)CC3)nc21 [Compound 4l, 9-Pentyl-2-(4-(4-clorophenyl)piperazin-1-yl)-6-(4-(trifluoromethoxy)phenyl)-9H-purine] | 147 to 149 °C | < 50% | < 50% | < 50% | < 50% | < 50% | 
CCCCCCn1cnc2c(-c3ccc(OC(F)(F)F)cc3)nc(N3CCN(c4ccc([N+](=O)[O-])cc4)CC3)nc21 [Compound 4o, 9-Hexyl-2-(4-(4-nitrophenyl)piperazin-1-yl)-6-(4-(trifluoromethoxy)phenyl)-9H-purine] | 142 to 144 °C | < 50% | < 50% | < 50% | < 50% | < 50% | 
N.N.[Cl][Pt][Cl] [Cisplatin, reference compound] |  |  |  |  |  |  | IC50 [7]: 12 ± 1.4 µM; IC50 ([5]; MTT): 12 ± 0.7 µM
CCCCCn1cnc2c(-c3ccc(OC(F)(F)F)cc3)nc(N3CCN(c4ccc([N+](=O)[O-])cc4)CC3)nc21 [Compound 4n, 9-Pentyl-2-(4-(4-nitrophenyl)piperazin-1-yl)-6-(4-(trifluoromethoxy)phenyl)-9H-purine] | 180 to 181 °C | < 50% | < 50% | < 50% | < 50% | < 50% | 
COc1cc([C@@H]2c3cc4c(cc3[C@@H](O[C@@H]3O[C@@H]5CO[C@@H](C)O[C@H]5[C@H](O)[C@H]3O)[C@H]3COC(=O)[C@H]23)OCO4)cc(OC)c1O [Etoposide, reference compound] |  | 90 ± 0.5% | 65 ± 0.7% |  | 60 ± 1.1% |  | IC50 ([1]; HCT-116, MTT, 72 h): 9.8 ± 0.5 µM; IC50 ([7]; Homo sapiens, HEK293): 8.4 ± 0.7 µM; IC50 ([4]; NCI-H1975, MTT, 72 h): 40 ± 0.2 µM
